Assay results as given in the NIST ThermoML archive (doi:10.1016/j.jct.2011.05.014).
Numbers after ± are expanded uncertainties.

Assay: excess molar enthalpy (molar enthalpy of mixing); xn = mol fraction of the nth substance listed
Conditions: 298.15 K, 101.33 kPa, Liquid, Parr 1455 Solution Calorimeter

Molecule O=Cc1ccccc1 [benzaldehyde] + CCCCCO has an excess molar enthalpy (x1 = 0.0899) of 0.152 ± 0.00198 kcal/mol, an excess molar enthalpy (x1 = 0.1799) of 0.2818 ± 0.00263 kcal/mol and an excess molar enthalpy (x1 = 0.2699) of 0.38 ± 0.00335 kcal/mol. It also gave an excess molar enthalpy (x1 = 0.36) of 0.435 ± 0.00359 kcal/mol, an excess molar enthalpy (x1 = 0.4499) of 0.4637 ± 0.00382 kcal/mol and an excess molar enthalpy (x1 = 0.54) of 0.4661 ± 0.00382 kcal/mol. It also gave an excess molar enthalpy (x1 = 0.6259) of 0.4405 ± 0.00359 kcal/mol, an excess molar enthalpy (x1 = 0.6898) of 0.4032 ± 0.00335 kcal/mol and an excess molar enthalpy (x1 = 0.7523) of 0.357 ± 0.00311 kcal/mol. The excess molar enthalpy (x1 = 0.8094) was 0.2997 ± 0.00263 kcal/mol, the excess molar enthalpy (x1 = 0.8426) was 0.261 ± 0.00263 kcal/mol and the excess molar enthalpy (x1 = 0.9015) was 0.184 ± 0.00208 kcal/mol.

Molecule O=Cc1ccccc1 [benzaldehyde] + CCCCO has an excess molar enthalpy (x1 = 0.0759) of 0.142 ± 0.00194 kcal/mol, an excess molar enthalpy (x1 = 0.1555) of 0.256 ± 0.00263 kcal/mol and an excess molar enthalpy (x1 = 0.2374) of 0.3417 ± 0.00287 kcal/mol. The excess molar enthalpy (x1 = 0.3186) was 0.4036 ± 0.00335 kcal/mol, the excess molar enthalpy (x1 = 0.4053) was 0.4345 ± 0.00359 kcal/mol and the excess molar enthalpy (x1 = 0.4922) was 0.4468 ± 0.00359 kcal/mol. For the same molecule, the excess molar enthalpy (x1 = 0.5824) was 0.4391 ± 0.00359 kcal/mol, the excess molar enthalpy (x1 = 0.6314) was 0.4243 ± 0.00359 kcal/mol and the excess molar enthalpy (x1 = 0.6755) was 0.4059 ± 0.00335 kcal/mol. The excess molar enthalpy (x1 = 0.7923) was 0.3146 ± 0.00287 kcal/mol, the excess molar enthalpy (x1 = 0.8945) was 0.195 ± 0.0021 kcal/mol and the excess molar enthalpy (x1 = 0.9245) was 0.146 ± 0.00208 kcal/mol.

O=Cc1ccccc1 [benzaldehyde] + CCCO gave an excess molar enthalpy (x1 = 0.0896) of 0.158 ± 0.00184 kcal/mol, an excess molar enthalpy (x1 = 0.1797) of 0.2632 ± 0.00239 kcal/mol and an excess molar enthalpy (x1 = 0.2698) of 0.3294 ± 0.00287 kcal/mol. It also gave an excess molar enthalpy (x1 = 0.3598) of 0.3728 ± 0.00311 kcal/mol, an excess molar enthalpy (x1 = 0.4822) of 0.391 ± 0.00311 kcal/mol and an excess molar enthalpy (x1 = 0.5559) of 0.3871 ± 0.00311 kcal/mol. It also gave an excess molar enthalpy (x1 = 0.5989) of 0.3774 ± 0.00311 kcal/mol, an excess molar enthalpy (x1 = 0.647) of 0.3642 ± 0.00311 kcal/mol and an excess molar enthalpy (x1 = 0.7017) of 0.3388 ± 0.00287 kcal/mol. It also gave an excess molar enthalpy (x1 = 0.7626) of 0.3006 ± 0.00263 kcal/mol, an excess molar enthalpy (x1 = 0.8323) of 0.237 ± 0.00227 kcal/mol and an excess molar enthalpy (x1 = 0.9112) of 0.146 ± 0.00174 kcal/mol.

In the case of O=Cc1ccccc1 [benzaldehyde] + CCO, the excess molar enthalpy (x1 = 0.0912) is reported as 0.141 ± 0.0016 kcal/mol, the excess molar enthalpy (x1 = 0.1809) is reported as 0.2267 ± 0.00208 kcal/mol and the excess molar enthalpy (x1 = 0.2707) is reported as 0.2786 ± 0.00239 kcal/mol. The excess molar enthalpy (x1 = 0.3603) was 0.3025 ± 0.00263 kcal/mol, the excess molar enthalpy (x1 = 0.4503) was 0.3107 ± 0.00263 kcal/mol and the excess molar enthalpy (x1 = 0.5405) was 0.3059 ± 0.00263 kcal/mol. For the same molecule, the excess molar enthalpy (x1 = 0.628) was 0.2864 ± 0.00239 kcal/mol, the excess molar enthalpy (x1 = 0.669) was 0.2707 ± 0.00232 kcal/mol and the excess molar enthalpy (x1 = 0.7164) was 0.2485 ± 0.00217 kcal/mol. It also gave an excess molar enthalpy (x1 = 0.7714) of 0.2182 ± 0.00198 kcal/mol, an excess molar enthalpy (x1 = 0.8358) of 0.17 ± 0.00172 kcal/mol and an excess molar enthalpy (x1 = 0.9114) of 0.101 ± 0.00131 kcal/mol.

For O=Cc1ccccc1 [benzaldehyde] + CO, the excess molar enthalpy (x1 = 0.0877) was 0.0955 ± 0.00115 kcal/mol, the excess molar enthalpy (x1 = 0.1795) was 0.1561 ± 0.00151 kcal/mol and the excess molar enthalpy (x1 = 0.2704) was 0.1984 ± 0.00177 kcal/mol. The excess molar enthalpy (x1 = 0.3608) was 0.2242 ± 0.00194 kcal/mol, the excess molar enthalpy (x1 = 0.4509) was 0.2352 ± 0.00201 kcal/mol and the excess molar enthalpy (x1 = 0.5406) was 0.2337 ± 0.00201 kcal/mol. For the same molecule, the excess molar enthalpy (x1 = 0.6153) was 0.223 ± 0.00194 kcal/mol, the excess molar enthalpy (x1 = 0.6966) was 0.1983 ± 0.00174 kcal/mol and the excess molar enthalpy (x1 = 0.7344) was 0.1826 ± 0.00167 kcal/mol. The excess molar enthalpy (x1 = 0.7803) was 0.1603 ± 0.00153 kcal/mol, the excess molar enthalpy (x1 = 0.8379) was 0.128 ± 0.00134 kcal/mol and the excess molar enthalpy (x1 = 0.9092) was 0.078 ± 0.00105 kcal/mol.
